# Read-outs that look alike come from different tables or passages of the source.
# Legend:
# ovarian cancer = details: patients, phase I/II study; cited from earlier work
# KB tumor cells (FR+) [1] = system: KB tumor cells (FR+)
# Procedure: Nude mice bearing KB-tumors were used for this study.
# The NODAGA-LINKER-FOLATE derivative was labeled with ^67Ga by incubation at RT with 37 MBq of ^67GaCl3 in HEPES buffer. […] It was diluted with 0.9% NaCl at a concentration of 4 nmol/ml and this solution was injected to the mice (100 μl/0.4 nmol/mouse).
# One week before the tumor cell inoculation all mice were put under a folate low diet (SAFE company, semi-synthetic product with 50 μg/kg of folate) until the end of the study.
# At D0, the tumor inoculation was performed as follow: One million (10^6) of KB tumor cells (FR+) resuspended at 1×10^7 cells/ml in sterile PBS 0.01M, pH 7.4, were subcutaneously inoculated in the right flank of the nude mice in a volume of 100 μl. The tumors were allowed to grow for 8-9 days. For the in vivo evaluation the mice were grouped in groups of 3 mice per group.
# At D9 biodistribution studies were performed for the ^67Ga-NODAGA-LINKER-FOLATE (compound 2′ complexed by Ga67) in groups of mice as follow: • 3 groups: injection with ^67Ga-NODAGA-LINKER-FOLATE (compound 2′ complexed by Ga67) (0.4 nmol/10 μCi/100 μl/mouse) • 1 group: injection of Folic acid (40 nmol/100 μl/mouse) 5 min before the injection of ^67Ga-NODAGA-LINKER-FOLATE (compound 2′ complexed by Ga67) • 1 group: injection of Alimta (400 μg/100 μl/mouse) 1 h before the injection of ^67Ga-NODAGA-LINKER-FOLATE (compound 2′ complexed by Ga67) • Time points: 2 h, 4 h, 4 h (blocking with FA), 4 h (kidney blocking with Alimta), 24 h p.i. Results
# KB tumor cells (FR+) [2] = assay: Biodistribution of NODAGA-LINKER-FOLATE-Ga68 in nude mice bearing KB-tumors; assay type: in vivo; details: for Ratio tumor:blood / Ratio tumor:bone / Ratio tumor:kidney / Ratio tumor:liver / Ratio tumor:muscle / Ratio tumor:pancreas / Ratio tumor:parotid: 1 h post-injection
# Procedure: The NODAGA-LINKER-FOLATE derivative was labeled with ^68Ga using the Modular-Lab automatic system by Eckert & Ziegler.
# NODAGA-LINKER-FOLATE-Ga68 compound (compound 2) was obtained in radiochemical purity preferably >92 to >98%.
# At D0, the tumor inoculation was performed as follow: One million (10^6) of KB tumor cells (FR+) resuspended at 1×10^7 cells/ml in sterile PBS 0.01M, pH 7.4, were subcutaneously inoculated in the right flank of the nude mice in a volume of 100 μl.
# At D8 biodistribution studies and PET/CT images were performed for NODAGA-folate-Ga68 (compound 2) in 2 groups of mice as follow: • 1 group: injection with NODAGA-LINKER-FOLATE-Ga68 (compound 2) (0.4 nmol/2 MBq/100 μl/mouse) • 1 group: injection of Alimta (400 μg/100 μl/mouse) 1 h before the injection of NODAGA-LINKER-FOLATE-Ga68 (compound 2) • Time point: 1 h p.i.
# OVCAR-3 tumors = assay: Biodistribution and PET/CT imaging in mice model bearing OVCAR-3 tumor; assay type: in vivo, SCID mice
# Procedure: Similar protocol was used for OVCAR-3 tumor models.
# For the kidney blocking the antifolate Alimta, at a concentration of 4 mg/ml in PBS pH 7.4 was used.
# For the Folate Receptors blocking Folic acid in 100-fold excess (400 nmol/ml) in PBS pH 7.4 was used.
# [3] = Parotid gland uptake in normal mice without folate-free diet; assay type: in vivo; details: no folate-free diet
# [4] = 4 h Alimta pre-injection (400 μg/mouse, 1 h)
# [5] = 4 h blocking with Folic acid (100-fold excess, 5 min pre-injection)
# [6] = Group 1: Alimta 400 μg/mouse 1 h pre-injection
compound,measurement,setting,value
Nc1nc2ncc(CNc3ccc(C(=O)N[C@@H](CCC(=O)NCCNC(=O)CN(CCN(CCN(CC(=O)[O-])CC(=O)[O-])CC(=O)[O-])CC(=O)[O-])C(=O)O)cc3)nc2c(=O)[nH]1.[111In] [111In-DTPA-folate],Target-tissue uptake and non target-tissue clearance,ovarian cancer,rapid target-tissue uptake and non target-tissue clearance
Nc1nc2ncc(CNc3ccc(C(=O)N[C@@H](CCC(=O)NCCNC(=O)CCC(C(=O)[O-])N4CCN(CC(=O)[O-])CCN(CC(=O)[O-])CC4)C(=O)O)cc3)nc2c(=O)[nH]1.[67Ga+3] (some centres unmarked) [NODAGA-LINKER-FOLATE-Ga67],"Biodistribution, Parotid gland",KB tumor cells (FR+) [1]; 2 h,9.10 ± 3.39
same,"Biodistribution, adrenal",KB tumor cells (FR+) [1]; 2 h,3.09 ± 0.52
same,"Biodistribution, blood",KB tumor cells (FR+) [1]; 2 h,0.09 ± 0.02
same,"Biodistribution, intestine",KB tumor cells (FR+) [1]; 2 h,0.50 ± 0.12
same,"Biodistribution, kidney",KB tumor cells (FR+) [1]; 2 h,142.14 ± 15.46
same,"Biodistribution, liver",KB tumor cells (FR+) [1]; 2 h,1.38 ± 0.50
same,"Biodistribution, lung",KB tumor cells (FR+) [1]; 2 h,1.32 ± 0.15
same,"Biodistribution, muscle",KB tumor cells (FR+) [1]; 2 h,1.49 ± 0.18
same,"Biodistribution, pancreas",KB tumor cells (FR+) [1]; 2 h,2.91 ± 0.08
same,"Biodistribution, pituitary",KB tumor cells (FR+) [1]; 2 h,0.53 ± 0.24
same,"Biodistribution, spleen",KB tumor cells (FR+) [1]; 2 h,0.48 ± 0.11
same,"Biodistribution, stomach",KB tumor cells (FR+) [1]; 2 h,1.58 ± 0.12
same,"Biodistribution, Parotid gland",KB tumor cells (FR+) [1]; 4 h,8.58 ± 2.33
same,"Biodistribution, adrenal",KB tumor cells (FR+) [1]; 4 h,2.80 ± 0.10
same,"Biodistribution, blood",KB tumor cells (FR+) [1]; 4 h,0.06 ± 0.01
same,"Biodistribution, intestine",KB tumor cells (FR+) [1]; 4 h,0.43 ± 0.16
same,"Biodistribution, kidney",KB tumor cells (FR+) [1]; 4 h,130.31 ± 14.65
same,"Biodistribution, liver",KB tumor cells (FR+) [1]; 4 h,1.07 ± 0.18
same,"Biodistribution, lung",KB tumor cells (FR+) [1]; 4 h,1.36 ± 0.37
same,"Biodistribution, muscle",KB tumor cells (FR+) [1]; 4 h,2.12 ± 0.31
same,"Biodistribution, pancreas",KB tumor cells (FR+) [1]; 4 h,2.92 ± 0.11
same,"Biodistribution, pituitary",KB tumor cells (FR+) [1]; 4 h,0.79 ± 0.74
same,"Biodistribution, spleen",KB tumor cells (FR+) [1]; 4 h,0.46 ± 0.10
same,"Biodistribution, stomach",KB tumor cells (FR+) [1]; 4 h,1.47 ± 0.08
same,"Biodistribution, Parotid gland",KB tumor cells (FR+) [1]; [4],6.10 ± 2.09
same,"Biodistribution, adrenal",KB tumor cells (FR+) [1]; [4],1.75 ± 0.23
same,"Biodistribution, blood",KB tumor cells (FR+) [1]; [4],0.04 ± 0.01
same,"Biodistribution, intestine",KB tumor cells (FR+) [1]; [4],0.50 ± 0.37
same,"Biodistribution, kidney",KB tumor cells (FR+) [1]; [4],19.13 ± 6.66
same,"Biodistribution, liver",KB tumor cells (FR+) [1]; [4],0.88 ± 0.26
same,"Biodistribution, lung",KB tumor cells (FR+) [1]; [4],0.68 ± 0.18
same,"Biodistribution, muscle",KB tumor cells (FR+) [1]; [4],1.26 ± 0.38
same,"Biodistribution, pancreas",KB tumor cells (FR+) [1]; [4],2.20 ± 0.69
same,"Biodistribution, pituitary",KB tumor cells (FR+) [1]; [4],0.59 ± 0.41
same,"Biodistribution, spleen",KB tumor cells (FR+) [1]; [4],0.31 ± 0.13
same,"Biodistribution, stomach",KB tumor cells (FR+) [1]; [4],0.84 ± 0.31
same,"Biodistribution, Parotid gland",KB tumor cells (FR+) [1]; [5],0.18 ± 0.06
same,"Biodistribution, adrenal",KB tumor cells (FR+) [1]; [5],0.02 ± 0.01
same,"Biodistribution, blood",KB tumor cells (FR+) [1]; [5],0.00 ± 0.00
same,"Biodistribution, intestine",KB tumor cells (FR+) [1]; [5],0.08 ± 0.07
same,"Biodistribution, kidney",KB tumor cells (FR+) [1]; [5],6.49 ± 1.03
same,"Biodistribution, liver",KB tumor cells (FR+) [1]; [5],0.06 ± 0.00
same,"Biodistribution, lung",KB tumor cells (FR+) [1]; [5],0.06 ± 0.00
same,"Biodistribution, muscle",KB tumor cells (FR+) [1]; [5],0.03 ± 0.00
same,"Biodistribution, pancreas",KB tumor cells (FR+) [1]; [5],0.05 ± 0.00
same,"Biodistribution, pituitary",KB tumor cells (FR+) [1]; [5],−0.02 ± 0.01
same,"Biodistribution, spleen",KB tumor cells (FR+) [1]; [5],0.04 ± 0.01
same,"Biodistribution, stomach",KB tumor cells (FR+) [1]; [5],0.09 ± 0.06
same,"Biodistribution, Parotid gland",KB tumor cells (FR+) [1]; 24 h,5.57 ± 0.82
same,"Biodistribution, adrenal",KB tumor cells (FR+) [1]; 24 h,5.04 ± 5.96
same,"Biodistribution, blood",KB tumor cells (FR+) [1]; 24 h,0.04 ± 0.02
same,"Biodistribution, intestine",KB tumor cells (FR+) [1]; 24 h,0.37 ± 0.13
same,"Biodistribution, kidney",KB tumor cells (FR+) [1]; 24 h,97.62 ± 11.59
same,"Biodistribution, liver",KB tumor cells (FR+) [1]; 24 h,0.87 ± 0.16
same,"Biodistribution, lung",KB tumor cells (FR+) [1]; 24 h,0.94 ± 0.31
same,"Biodistribution, muscle",KB tumor cells (FR+) [1]; 24 h,1.14 ± 0.01
same,"Biodistribution, pancreas",KB tumor cells (FR+) [1]; 24 h,2.37 ± 0.17
same,"Biodistribution, pituitary",KB tumor cells (FR+) [1]; 24 h,0.41 ± 0.39
same,"Biodistribution, spleen",KB tumor cells (FR+) [1]; 24 h,0.37 ± 0.13
same,"Biodistribution, stomach",KB tumor cells (FR+) [1]; 24 h,1.01 ± 0.10
same,Time of maximum tumor uptake,KB tumor cells (FR+) [1]; KB-tumor bearing nude mice,2 h p.i.
same,Tumor uptake,KB tumor cells (FR+) [1]; at 24 h p.i.,remains high
same,Specificity of tumor uptake,KB tumor cells (FR+) [1]; blocking experiment with folic acid,specific
same,Kidney uptake,KB tumor cells (FR+) [1]; with the use of Alimta,significantly reduced
same,Tumor uptake,KB tumor cells (FR+) [1]; with the use of Alimta,remained the same
"Nc1nc2ncc(CNc3ccc(C(=O)N[C@@H](CCC(=O)NCCNC(=O)CCC(C(=O)O)N4CCN(CC(=O)O)CCN(CC(=O)O)CC4)C(=O)O)cc3)nc2c(=O)[nH]1 (some centres unmarked) [NODAGA-LINKER-FOLATE-Ga68, folate-NODAGA-Ga68, metal not drawn]",Ratio tumor:blood,KB tumor cells (FR+) [2]; [6],49.33
same,Ratio tumor:bone,KB tumor cells (FR+) [2]; [6],20.96
same,Ratio tumor:kidney,KB tumor cells (FR+) [2]; [6],0.69
same,Ratio tumor:liver,KB tumor cells (FR+) [2]; [6],10.49
same,Ratio tumor:muscle,KB tumor cells (FR+) [2]; [6],13.32
same,Ratio tumor:pancreas,KB tumor cells (FR+) [2]; [6],9.30
same,Ratio tumor:parotid,KB tumor cells (FR+) [2]; [6],2.63
same,Ratio tumor:blood,KB tumor cells (FR+) [2]; Group 2: no Alimta,64.85
same,Ratio tumor:bone,KB tumor cells (FR+) [2]; Group 2: no Alimta,28.11
same,Ratio tumor:kidney,KB tumor cells (FR+) [2]; Group 2: no Alimta,0.17
same,Ratio tumor:liver,KB tumor cells (FR+) [2]; Group 2: no Alimta,6.64
same,Ratio tumor:muscle,KB tumor cells (FR+) [2]; Group 2: no Alimta,9.95
same,Ratio tumor:pancreas,KB tumor cells (FR+) [2]; Group 2: no Alimta,6.89
same,Ratio tumor:parotid,KB tumor cells (FR+) [2]; Group 2: no Alimta,1.72
same,Uptake in the parotid gland,KB tumor cells (FR+) [2]; KB-tumor mice under folate-free diet,High uptake
same,PET/CT images: background,OVCAR-3 tumors; 1 h post injection,negligible background
same,PET/CT images: kidneys,OVCAR-3 tumors; 1 h post injection,high uptake in the kidneys
same,PET/CT images: tumors,OVCAR-3 tumors; 1 h post injection,clear visualization of the tumors
same,Quality of PET/CT images,"OVCAR-3 tumors; mouse, in vivo",Very satisfying
same,High uptake in the parotid gland,[3],This was not the case
